US11001584B2, “Polymorphs” (SYNGENTA PARTICIPATIONS AG, priority 2016, dated 2021)

Test: Stability of polymorphs: equal amounts of both polymorphs stirred in IPA, form determined by DSC and high throughput pXRD
Format: physicochemical
Settings: 24 hours
Method: Equal amounts of the polymorph of the invention and the Reference Form A polymorph were stirred in IPA at a range of temperatures. After 24 hours, the crystals were isolated and dried and their polymorphic form determined by DSC and high throughput pXRD.

CCOC(=O)OC1=C(c2c(C)cc(Cl)cc2C)C(=O)N(C)C12CCN(OC)CC2 [Reference Form A]
DSC curves of the isolated crystals (polymorphic form present) (equal amounts of polymorph of the invention and Reference Form A stirred in IPA at a range of temperatures): marked reduction in the presence of Reference Form A | Powder XRD patterns of the isolated crystals (polymorphic form present) (equal amounts of polymorph of the invention and Reference Form A stirred in IPA, room temperature, 40° C. and 50° C.): reflections characteristic of Reference Form A were absent

CCOC(=O)OC1=C(c2c(C)cc(Cl)cc2C)C(=O)N(C)C12CCN(OC)CC2 [polymorph of the invention]
Relative polymorphic stability (stirred with Reference Form A in IPA, room temperature up to 50° C.): the stable form over the temperature range studied
